Laboratory results reported in PubChem BioAssay (NCI).
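Protocol summary: plate cells (96-well), add compound at 5 concentrations, incubate 48 h, interpolate endpoints linearly. Abbreviation: GI50, concentration required for 50% inhibition of growth. TGI: total growth inhibition.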

Columns and labels:
Assay in all cases: DTP human tumour cell line panel, 48 h
TK-10 renal = system: TK-10 renal
MOLT-4 leukemia = system: MOLT-4 leukemia
UACC-62 melanoma = system: UACC-62 melanoma
K-562 leukemia = system: K-562 leukemia
EKVX NSCLC = system: EKVX NSCLC
SNB-75 CNS = system: SNB-75 CNS
OVCAR-4 ovarian = system: OVCAR-4 ovarian
MDA-MB-435 = system: MDA-MB-435
DU-145 prostate = system: DU-145 prostate
PC-3 prostate = system: PC-3 prostate

Compound	TGI (TK-10 renal) [µM]	TGI (MOLT-4 leukemia) [µM]	TGI (UACC-62 melanoma) [µM]	TGI (K-562 leukemia) [µM]	TGI (EKVX NSCLC) [µM]	TGI (SNB-75 CNS) [µM]	TGI (OVCAR-4 ovarian) [µM]	GI50 (TK-10 renal) [µM]	GI50 (MOLT-4 leukemia) [µM]	GI50 (UACC-62 melanoma) [µM]	GI50 (MDA-MB-435) [µM]	TGI (MDA-MB-435) [µM]	GI50 (EKVX NSCLC) [µM]	GI50 (K-562 leukemia) [µM]	GI50 (DU-145 prostate) [µM]	TGI (DU-145 prostate) [µM]	GI50 (SNB-75 CNS) [µM]	GI50 (OVCAR-4 ovarian) [µM]	GI50 (PC-3 prostate) [µM]	TGI (PC-3 prostate) [µM]
Cc1nc(C(N)=O)c(N)n1CCN1CCN(C(=O)CCCCCCCCCCNC2N=CNc3nc[nH]c32)CC1 (stereo unspecified)	> 100	47.6	> 100	> 100	–	–	–	–	–	–	–	–	–	–	–	–	–	–	–	–
Cc1cc2c(C)nn(Cc3ccccc3)c2c(C(=O)O)c1C	> 100	> 100	> 100	–	> 100	–	–	–	–	–	–	–	–	–	–	–	–	–	–	–
C[N+](C)(C)CCC(=O)CC[N+](C)(C)C	34.6	19.5	41.4	24.3	> 100	73.3	34.8	–	–	–	–	–	–	–	–	–	–	–	–	–
O=C1C[C@H]2CCCN2[C@@H](c2ccccc2)C1	> 100	> 100	> 100	> 100	> 100	> 100	> 100	–	–	–	–	–	–	–	–	–	–	–	–	–
c1ccc(C2ONC3=NCCN32)cc1 (stereo unspecified)	> 100	34.6	> 100	> 100	> 100	> 100	> 100	> 100	12.2	39.4	93.9	> 100	> 100	16.1	62.1	> 100	53.4	> 100	18.8	78.2
CNC(=S)Nc1ccc(OC)c2ccccc12	> 10	> 10	> 10	> 10	–	> 10	> 10	–	–	–	–	> 10	–	–	–	> 10	–	–	–	> 10
O=c1cc(-c2cccs2)[nH]c2cc3c(cc12)OCO3	> 100	> 100	> 25	> 100	> 100	6.63	> 22.2	–	–	–	–	–	–	–	–	–	–	–	–	–
CCc1cccc(C)c1NS(=O)(=O)c1ccccc1	> 100	> 100	> 100	> 100	> 100	> 100	> 100	–	–	–	–	–	–	–	–	–	–	–	–	–
Cn1c(=O)c(N=Nc2c(=O)n(C)c(=O)n3c2[nH]c2ccccc23)c2[nH]c3ccccc3n2c1=O	> 100	–	> 100	> 100	> 100	91.6	> 100	–	–	–	–	–	–	–	–	–	–	–	–	–
CC(=O)c1c(O)c(C)c(O)c(Cc2c(O)c3c(c(C(=O)/C=C/c4ccccc4)c2O)OC(C)(C)C=C3)c1O	> 100	16.8	10	14.7	12.9	7.93	29.4	–	–	–	–	–	–	–	–	41.1	–	–	–	5.18
N#CC(N)=Nc1ccccc1	> 100	> 100	> 100	> 100	> 100	> 100	> 100	–	–	–	–	–	–	–	–	–	–	–	–	–
Nc1ncnc2c1ncn2C1OC(CSCC(F)(F)F)C(O)C1O (stereo unspecified)	> 100	> 100	> 100	> 100	> 100	> 100	> 100	–	–	–	–	–	–	–	–	–	–	–	–	–
CC(CO)Nc1cc(-c2[nH]c3cccnc3c2-c2ccc(F)cc2)ccn1 (stereo unspecified)	> 25	> 25	> 25	> 25	–	> 25	> 25	6.86	> 25	11.4	> 22.4	> 25	–	23.4	17.6	> 25	14.8	> 25	21.5	> 25
O=C1C2C3C=C4c5ccccc5N(c5ccccc5)C4(C2C(=O)N1c1ccccc1)C1C(=O)N(c2ccccc2)C(=O)C31 (stereo unspecified)	> 100	> 100	–	> 100	–	> 100	–	–	–	–	–	–	–	–	–	–	–	–	–	–
O=c1ncccn1[C@@H]1O[C@H](CO)[C@H](O)C1O (stereo partly specified)	> 100	> 100	> 100	> 100	> 100	> 100	> 100	–	–	–	–	–	–	–	–	–	–	–	–	–
O=C(Oc1cccnc1)c1cccnc1Nc1ccnc(C(F)(F)F)c1	> 100	23.8	24.1	> 100	> 100	–	> 100	17.2	3.87	5.78	–	–	51.3	5.18	15	42.1	–	> 100	7.03	56.1
COC(=O)c1sc(C(=O)OC)c2c1CS(=O)C2	> 100	> 100	> 100	> 100	> 100	> 100	> 100	–	–	–	–	–	–	–	–	–	–	–	–	–
CN1CCN(C(=S)N(C)C(=O)c2ccco2)CC1	> 100	> 100	> 100	> 100	–	–	> 100	–	–	–	–	> 100	–	–	–	> 100	–	–	–	–
COc1ccc2nccc(C3=CCC4CCN(C(=O)c5ccccc5)C3C4)c2c1 (stereo unspecified)	> 100	> 100	> 100	> 100	> 100	> 100	> 100	–	–	–	–	–	–	–	–	–	–	–	–	–
COC(=O)C1=CO[C@@H](OC2CC(CO)C(O)C(O)C2O)[C@@H]2[C@@H](C)[C@@H](OC(=O)/C=C/c3ccccc3)[C@@H](O)[C@H]12 (stereo partly specified) (tested in a mixture with another compound)	> 100	> 100	> 100	> 100	> 100	> 100	> 100	–	–	–	–	–	–	–	–	–	–	–	–	–
Cn1c(=O)nc2n(-c3ccc(O)cc3)c3ccccc3nc-2c1=O	> 100	> 100	52.5	> 100	> 100	> 100	> 100	–	–	–	–	–	–	–	–	–	–	–	–	–
CC1=C(C(=O)Nc2ccccc2C)C(c2ccc(Cl)cc2)C(C(=O)Nc2ccccc2C)=C(C)N1	> 100	> 100	> 100	> 100	> 100	–	> 100	–	–	–	–	–	–	–	–	–	–	–	–	–
O=C(NCCCOC(=O)CCCCCCCCC(=O)OCCCNC(=O)NC(=O)c1c[nH]c(=O)[nH]c1=O)NC(=O)c1c[nH]c(=O)[nH]c1=O	> 100	> 100	> 100	> 100	> 100	–	> 100	–	–	–	–	–	–	–	–	–	–	–	–	–

Compound	TGI (TK-10 renal) [µM]	TGI (MOLT-4 leukemia) [µM]	TGI (UACC-62 melanoma) [µM]	TGI (K-562 leukemia) [µM]	TGI (EKVX NSCLC) [µM]	TGI (SNB-75 CNS) [µM]	TGI (OVCAR-4 ovarian) [µM]	GI50 (TK-10 renal) [µM]	GI50 (MOLT-4 leukemia) [µM]	GI50 (UACC-62 melanoma) [µM]	GI50 (MDA-MB-435) [µM]	TGI (MDA-MB-435) [µM]	GI50 (EKVX NSCLC) [µM]	GI50 (K-562 leukemia) [µM]	GI50 (DU-145 prostate) [µM]	TGI (DU-145 prostate) [µM]	GI50 (SNB-75 CNS) [µM]	GI50 (OVCAR-4 ovarian) [µM]	GI50 (PC-3 prostate) [µM]	TGI (PC-3 prostate) [µM]
CN1N=CSC12C(=O)N(c1ccccc1)C(=O)N2c1ccccc1 (stereo unspecified)	> 100	> 100	> 100	> 100	> 100	> 100	> 100	–	–	–	–	–	–	–	–	–	–	–	–	–
C/C=C/C(C#N)O[Si](C)(C)C (stereo unspecified)	> 100	> 100	> 100	–	> 100	> 100	> 100	–	–	–	–	–	–	–	–	–	–	–	–	–
Cc1ccc2cnc(N)c(C#Cc3cc(C(=O)Nc4ccc(CN5CCN(C)CC5)c(C(F)(F)F)c4)cnc3C)c2c1	1.48	–	1.08	1.26	1.53	1.61	8.36	0.731	–	0.234	0.262	1.01	0.679	0.005	0.531	1.14	0.756	0.436	0.734	1.56
COc1cc(Cl)cc(=O)c(O)c1OC	> 100	> 100	70.7	> 100	> 91.8	> 100	> 100	–	–	–	–	–	–	–	–	–	–	–	–	–
Oc1cccc(Nc2nc3ccccc3c3occc23)c1	12.2	–	23.1	55.8	28.5	–	22.1	5.21	–	11.1	3.04	14.8	14.6	4.81	12.2	24.6	–	3.8	8.59	21
CCOC(=O)NC(=O)c1cn(CCN2CCN(C(=O)NCCCCCCNC(=O)N3CCN(CCn4cc(C(=O)NC(=O)OCC)c(=O)[nH]c4=O)CC3)CC2)c(=O)[nH]c1=O	> 100	–	> 100	> 100	> 100	> 100	> 100	–	–	–	–	–	–	–	–	–	–	–	–	–
Cn1ccnc1CCc1c(Cl)cccc1Cl	> 100	> 100	> 100	> 100	–	> 100	> 100	–	–	–	–	–	–	–	–	–	–	–	–	–
O=c1oc2ccccc2c2c1Sc1ccccc1N2	> 100	> 100	> 100	> 100	> 100	–	> 100	–	–	–	–	> 100	–	–	–	> 100	–	–	–	> 100
Cc1c(OC(C)C(=O)O)ccc2c(-c3ccccc3)cc(=O)oc12 (stereo unspecified)	> 100	> 100	> 100	> 100	> 100	> 100	> 100	–	–	–	–	–	–	–	–	–	–	–	–	–
CC(C)=CCN1c2ccccc2NC(=O)CC1C (stereo unspecified)	> 100	> 100	–	> 100	> 100	–	73.8	–	–	–	–	> 100	–	–	–	> 100	–	–	–	> 100
COC1=NCc2ccccc2-c2ccccc21	> 100	> 100	> 100	> 100	–	> 100	> 100	–	–	–	–	–	–	–	–	–	–	–	–	–
COc1ccc(-c2noc(C(=O)O)c2-c2cc(OC)c(OC)c(OC)c2)cc1	> 100	> 100	> 100	> 100	> 100	–	> 100	> 100	4.91	11.1	0.306	1.1	4.77	0.609	3.48	> 100	–	9.53	1.33	> 100
O=C1Nc2ccccc2C1(O)C/C(=N/O)c1ccc2ccccc2c1 (stereo unspecified)	> 100	> 100	–	> 100	> 100	> 100	> 100	–	–	–	–	–	–	–	–	–	–	–	–	–
CCc1c(C#N)c(=O)[nH]c(=O)n1CCN1CCN(C(=O)NCCCCCCNC(=O)N2CCN(CCn3c(CC)c(C#N)c(=O)[nH]c3=O)CC2)CC1	> 100	> 100	> 100	> 100	> 100	–	> 100	–	–	–	–	–	–	–	–	–	–	–	–	–
C[C@@H](NC(C#N)c1ccco1)c1ccccc1 (stereo partly specified)	> 100	> 100	> 100	> 100	> 100	> 100	–	–	–	–	–	> 100	–	–	–	> 100	–	–	–	> 100
IC[P+]1(c2ccccc2)CCCC1	> 100	> 100	> 100	> 100	46.1	62.7	–	–	–	–	–	–	–	–	–	–	–	–	–	–
COc1cccc(-c2nc3cc(NC(=O)c4ccc(Cl)c(C#N)c4)ccc3o2)c1	9	> 100	> 100	> 100	–	7.15	3.43	3.39	> 100	3.29	1.37	2.85	–	2.69	2.36	> 100	2.48	1.8	2.96	> 100
CC(=O)c1c(C(F)(F)F)n([O-])c2ccccc2[n+]1=O	5.59	> 100	3.02	> 100	8.01	–	3.9	1.2	0.613	0.7	1.2	4.03	3.47	1.26	–	–	–	0.969	1.3	10.8
O=C(N/N=C/c1ccccc1O)N/N=C/c1ccccc1O	> 100	> 100	> 100	> 100	> 100	> 100	> 100	–	–	–	–	–	–	–	–	–	–	–	–	–
CCSC1=NC2C(N(CC)C(=O)N2CC)N1/N=C/C=C/c1ccccc1[N+](=O)[O-] (stereo unspecified)	> 100	> 100	> 100	> 100	> 100	> 100	> 100	36.8	0.419	0.0604	–	–	0.314	0.0583	0.325	> 100	0.0528	0.28	0.187	> 100
CC[O-].CC[O-].O=C([CH-]C(=O)c1ccccc1)CCCCCCCCC(=O)[CH-]C(=O)c1ccccc1.[Ti+4]	> 100	> 100	> 100	> 100	> 100	> 100	> 100	> 100	53.9	> 100	–	–	> 100	> 100	–	–	> 100	78.8	–	–
O=C1CC(CC(=O)C2CCCCC2=O)C(=O)N1 (stereo unspecified)	> 100	–	> 100	> 100	> 100	> 100	> 100	–	–	–	–	–	–	–	–	–	–	–	–	–
